Publication PMC5896373 (Molecular Pharmacology, 2018)

Legend:
[1] = system: P2X7R left flipper point mutant D280A; experiment: Two-electrode voltage clamp of ATP-evoked currents in Xenopus oocytes; format: cell-based, human
Protocol: (§1) The production of the correct mutations and absence of coding errors was determined by DNA sequencing (Automated ABI Sequencing Service, University of Leicester, UK). cRNA was generated for the mutants and 50 nl (50 ng) was injected into manually defoliculated stage V Xenopus laevis oocytes using an Inject+Matic microinjector (J.A. Gabay, Inject+Matic, Geneva, Switzerland). Injected oocytes were stored at 16°C in ND96 buffer [in millimolar concentrations, NaCl 96, KCl 2, CaCl2 1.8, MgCl2 1, sodium pyruvate 5, and HEPES 5 (pH 7.6) supplemented with 50 μg/ml gentamycin and 50 μg/ml tetracycline]. Three to seven days postinjection two-electrode voltage clamp recordings were made from oocytes bathed in divalent-free ND96 buffer (in millimolar concentrations, NaCl 96, KCl 2, sodium pyruvate 5, HEPES 5, and 0.1 flufenamic acid, pH 7.6). Oocytes were voltage clamped at a holding potential of −60 mV with a GeneClamp500B amplifier (Molecular Devices).
(§2) Inhibition by the antagonists was expressed as the percentage of the peak current amplitude of an EC90 concentration of ATP recorded before the application of antagonist (ATP gave reproducible responses to ATP in the absence of antagonist). Inhibition curves were fitted with the Hill equation (variable slope) using GraphPad Prism 6 (GraphPad Software, San Diego, CA). […]

[2] = system: P2X7R left flipper point mutant K281A; experiment: as above; format: cell-based, human
Protocol: (§3) Injected oocytes were stored at 16°C in ND96 buffer [in millimolar concentrations, NaCl 96, KCl 2, CaCl2 1.8, MgCl2 1, sodium pyruvate 5, and HEPES 5 (pH 7.6) supplemented with 50 μg/ml gentamycin and 50 μg/ml tetracycline]. Three to seven days postinjection two-electrode voltage clamp recordings were made from oocytes bathed in divalent-free ND96 buffer (in millimolar concentrations, NaCl 96, KCl 2, sodium pyruvate 5, HEPES 5, and 0.1 flufenamic acid, pH 7.6). Oocytes were voltage clamped at a holding potential of −60 mV with a GeneClamp500B amplifier (Molecular Devices).
(§4) Electrophysiological traces were digitized with a Digidata 1322A and collected using pCLAMP 8.2 software (Molecular Devices, Menlo Park, CA). An EC90 concentration of ATP was used to test antagonist sensitivity for the P2X7-2Nβ and mutant receptors [ATP sensitivity of the chimeras and mutants are reported in [Allsopp et al. (2017)]] to standardize for any changes in ATP sensitivity.
(§5) Inhibition by the antagonists was expressed as the percentage of the peak current amplitude of an EC90 concentration of ATP recorded before the application of antagonist (ATP gave reproducible responses to ATP in the absence of antagonist). […] Any significant differences from the P2X7-2Nβ control were calculated by one-way analysis of variance, followed by Dunnett’s test (using GraphPad Prism 6). […]

[3] = system: P2X7R left flipper point mutant T282A; experiment: as above; format: cell-based, human
Protocol: as §1, §2

[4] = system: P2X7R left flipper point mutant T283A; experiment: as above; format: cell-based, human
Protocol: as §3, §4, §5

[5] = system: P2X7R left flipper point mutant N284A; experiment: as above; format: cell-based, human
Protocol: as §1, §2

P2X7R point mutant R206A = biological target: T1, P2X7R point mutant R206A (Homo sapiens, UniProt Q99572, I21V/M24R/N16P/N25R/Q22R/R206A/R20V/S23N/T19I/Y26L); experiment: as above; format: cell-based; settings: mean ± S.E.M.
T1 construct: expressed in transfected cells; host or cells: Xenopus laevis oocytes (cRNA injection)
T1 sequence (Q99572 whole entry N16P/T19I/R20V/I21V/Q22R/S23N/M24R/N25R/Y26L/R206A): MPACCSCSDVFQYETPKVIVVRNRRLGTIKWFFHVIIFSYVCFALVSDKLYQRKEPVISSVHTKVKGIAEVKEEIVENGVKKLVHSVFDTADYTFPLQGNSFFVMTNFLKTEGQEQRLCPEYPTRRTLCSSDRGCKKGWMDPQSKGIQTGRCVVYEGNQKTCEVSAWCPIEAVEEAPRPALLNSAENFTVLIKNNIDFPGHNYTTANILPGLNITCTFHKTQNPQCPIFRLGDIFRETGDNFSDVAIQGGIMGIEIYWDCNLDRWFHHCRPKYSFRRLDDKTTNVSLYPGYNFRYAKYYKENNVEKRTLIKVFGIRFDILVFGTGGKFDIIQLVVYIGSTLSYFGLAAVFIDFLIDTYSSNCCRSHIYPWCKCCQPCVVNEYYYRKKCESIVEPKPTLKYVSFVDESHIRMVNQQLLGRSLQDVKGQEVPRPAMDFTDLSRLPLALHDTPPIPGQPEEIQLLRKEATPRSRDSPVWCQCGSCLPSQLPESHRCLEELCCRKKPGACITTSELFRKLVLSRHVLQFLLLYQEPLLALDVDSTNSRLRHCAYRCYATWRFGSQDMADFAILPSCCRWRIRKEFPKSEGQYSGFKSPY
Protocol: as §3, §4, §5

P2X7R point mutant K193A = biological target: T2, P2X7R point mutant K193A (Homo sapiens, UniProt Q99572, I21V/K193A/M24R/N16P/N25R/Q22R/R20V/S23N/T19I/Y26L); experiment: as above; format: cell-based
T2 construct: expressed in transfected cells; host or cells: Xenopus laevis oocytes (cRNA injection)
T2 sequence (Q99572 whole entry N16P/T19I/R20V/I21V/Q22R/S23N/M24R/N25R/Y26L/K193A): as the sequence (Q99572 whole entry N16P/T19I/R20V/I21V/Q22R/S23N/M24R/N25R/Y26L/R206A) above, with K193A, A206R counted along it
Protocol: as §3, §4, §5

[6] = biological target: T3, chimeric P2X7R with left flipper 280–284 of P2X4 (Homo sapiens, UniProt Q99572, D280T/I21V/K281R/M24R/N16P/N25R/N284E/Q22R/R20V/S23N/T19I/T282D/T283V/Y26L); settings: chimera 280–284 of P2X4
T3 sequence (Q99572 1-595 N16P/T19I/R20V/I21V/Q22R/S23N/M24R/N25R/Y26L/D280T/K281R/T282D/T283V/N284E): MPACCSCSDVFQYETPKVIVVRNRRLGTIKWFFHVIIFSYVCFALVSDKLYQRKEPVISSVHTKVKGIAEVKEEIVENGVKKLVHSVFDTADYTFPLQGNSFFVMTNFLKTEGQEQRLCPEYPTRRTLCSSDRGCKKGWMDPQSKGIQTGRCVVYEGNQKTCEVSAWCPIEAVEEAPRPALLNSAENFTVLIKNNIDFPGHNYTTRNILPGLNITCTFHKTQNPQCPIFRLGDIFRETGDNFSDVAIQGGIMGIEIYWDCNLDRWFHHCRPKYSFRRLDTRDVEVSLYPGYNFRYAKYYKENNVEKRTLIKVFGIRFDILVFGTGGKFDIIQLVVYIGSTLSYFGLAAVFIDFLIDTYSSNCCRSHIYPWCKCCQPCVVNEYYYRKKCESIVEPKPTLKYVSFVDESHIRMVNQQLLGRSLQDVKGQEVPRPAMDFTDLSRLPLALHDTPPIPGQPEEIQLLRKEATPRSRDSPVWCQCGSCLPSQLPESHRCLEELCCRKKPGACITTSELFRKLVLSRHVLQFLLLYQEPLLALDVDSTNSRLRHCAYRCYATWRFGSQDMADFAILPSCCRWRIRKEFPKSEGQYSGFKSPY
Protocol: as §1
Inhibition by the antagonists was expressed as the percentage of the peak current amplitude of an EC90 concentration of ATP recorded before the application of antagonist (ATP gave reproducible responses to ATP in the absence of antagonist). Inhibition curves were fitted with the Hill equation (variable slope) using GraphPad Prism 6 (GraphPad Software, San Diego, CA). […] Individual concentration-response curves were generated for individual experiments, and statistical analysis was carried out on the data generated. […] Data are shown as mean ± S.E.M. In all cases n ≥ 3 for all data points.

[7] = biological target: T4, chimeric P2X7/1 receptor 279–285 (left flipper) (Homo sapiens, UniProt Q99572, DEL279-281/I21V/M24R/N16P/N25R/N284E/Q22R/R20V/S23N/T19I/T282Y/T283E/V285K/Y26L); design: method as in Allsopp et al., 2017; settings: chimera 279–285; ref Allsopp et al., 2017; cited from earlier work
T4 construct: expressed in transfected cells; host or cells: Xenopus laevis oocytes (cRNA injection)
T4 sequence (Q99572 with tags, fused parts or gaps N16P/T19I/R20V/I21V/Q22R/S23N/M24R/N25R/Y26L/DEL279-281/T282Y/T283E/N284E/V285K): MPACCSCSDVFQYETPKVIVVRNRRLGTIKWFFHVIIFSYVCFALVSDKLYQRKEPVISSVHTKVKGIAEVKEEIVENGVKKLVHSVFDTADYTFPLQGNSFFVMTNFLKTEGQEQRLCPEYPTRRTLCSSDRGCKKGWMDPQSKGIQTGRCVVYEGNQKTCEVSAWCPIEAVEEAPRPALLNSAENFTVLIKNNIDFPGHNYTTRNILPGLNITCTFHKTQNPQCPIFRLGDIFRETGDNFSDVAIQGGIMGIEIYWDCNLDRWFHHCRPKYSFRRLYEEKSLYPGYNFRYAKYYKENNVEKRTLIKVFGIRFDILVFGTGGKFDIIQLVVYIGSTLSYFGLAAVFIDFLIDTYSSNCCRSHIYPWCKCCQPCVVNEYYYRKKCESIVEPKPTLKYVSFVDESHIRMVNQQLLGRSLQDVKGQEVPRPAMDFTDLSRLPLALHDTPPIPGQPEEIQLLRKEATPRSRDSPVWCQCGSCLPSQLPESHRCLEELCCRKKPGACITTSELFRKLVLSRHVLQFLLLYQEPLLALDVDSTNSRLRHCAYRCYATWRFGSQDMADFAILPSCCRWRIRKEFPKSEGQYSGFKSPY

P2X7R = system: P2X7R; design: method as in North, 2002; Kaczmarek-Hajek et al., 2012; settings: physiologic concentrations of calcium and magnesium; ref North, 2002; Kaczmarek-Hajek et al., 2012; cited from earlier work
other P2XR subtypes = system: other P2XR subtypes; design: method as in North, 2002; Kaczmarek-Hajek et al., 2012; settings: ref North, 2002, Kaczmarek-Hajek et al., 2012; cited from earlier work

In the case of `Nc1ncnc2c1ncn2[C@@H]1O[C@H](COP(=O)(O)OP(=O)(O)OP(=O)(O)O)[C@@H](O)[C@H]1O` [ATP], the “fold increase in ATP potency” value [1] is reported as 15 fold, the “fold decrease in ATP sensitivity” value [2] is reported as 2 fold and the “effect on ATP sensitivity” value [3] is reported as “no effect”. The “fold decrease in ATP sensitivity” value [4] was 3.4 fold, the “effect on ATP sensitivity” value [5] was “no effect” and the “ATP sensitivity pEC50” value (P2X7R point mutant R206A) was 4.33 ± 0.06. The “amplitude of ATP-evoked responses” value (P2X7R point mutant K193A) was < 100 nA, the “fold increase in ATP sensitivity/potency” value [6] was ~15 fold and the “fold increase in sensitivity to ATP” value [7] was ~30 fold. The EC50 (P2X7R) was 300 to 1000 µM and the EC50 (other P2XR subtypes) was 1 to 30 µM.
